The values below come from patent publication EP1849783A1, “Octahydropentalene-substituted pyrazoline compounds, their preparation and use as medicaments” (LABORATORIOS DEL DR. ESTEVE, S.A., priority 2006, dated 2007).

Assay [1] addresses T1, transfected human CB1 receptors (Homo sapiens, UniProt P21554).
T1 construct: purchased Receptor Biology, Inc
The assay can be described thus: in-vitro determination of affinity to CB1-Receptor (radioligand binding). The conditions noted are these: transfected human CB1 receptors of Receptor Biology, Inc.; radioligand [^3H]-CP55940; read-out: CB1-Receptor Radiologand :[^3H]-CP55940 IC50. The protocol: The in-vitro determination of the affinity of the inventive quaternary ammonium salts of substituted pyrazoline compounds to CB1/CB2-Rezeptors is carried out as described in the publication of Ruth A. Ross, Heather C. Brockie et al., "Agonist-inverse agonist characterization at CB1 and CB2 cannabinoid receptors of L-759633, L759656 and AM630", British Journal of Pharmacology, 126, 665-672, (1999), whereby the transfected human CB1 and CB2 receptors of Receptor Biology, Inc. are used. The radioligand used for both receptors is [^3H]-CP55940. The respective parts of the description are hereby incorporated by reference and forms part of the present disclosure.

In another assay the test system is cannabinoid receptors. Nature of the assay: Mouse tetrad model, antagonistic activity against Win 55212-2. The format is in vivo, Male NMRI mice. The conditions noted are these: against Win 55212-2 (1.25 mg/kg intravenous), substance injected 5 minutes before the agonist, mice. The text has this: Substances with affinity for cannabinoid receptors are known to produce a wide range of pharmacological effects. It is also known that intravenous administration of a substance with affinity for cannabinoid receptors in mice produces analgesia , hypothermia, sedation and catalepsy. Individually, none of these effects can be considered as proof that a tested substance has affinity for cannabinoid-receptors, since all of these effects are common for various classes of centrally active agents. However, substances, which show all of these effects, i.e. substances that are active in this so-called tetrad model are considered to have affinity for the cannabinoid receptors. It has further been shown that cannabinoid receptor antagonists are higly effective in blocking the effects of a cannabinoid agonist in the mouse tetrad model.
The tetrad model is described, for example, in the publication of A. C. Howlett et al, International Union of Pharmacology XXVII. Classification of Cannabinoid Receptors, Pharmacol Rev 54, 161-202, 2002 and David R. Compton et al., "In-vivo Characterization of a Specific Cannabinoid Receptor Antagonist (SR141716A) Inhibition of Tetrahydrocannbinol- induced Responses and Apparent Agonist Activity", J. Pharmacol. Exp. Ther. 277 , 2, 586-594, 1996. The corresponding parts of the description are hereby incorporated by reference. […]
Before testing in the behavioral procedures given below, mice are acclimatized to the experimental setting. Pre-Treatment control values are determined for analgesia hot plate latency (in seconds), rectal temperature, sedation and catalepsy.
In order to determine the agonistic activty of the substance to be tested, the mice are injected intravenously with the substance to be tested or the vehicle alone. 15 minutes after injection, latency in hot plate analgesia is measured. Rectal temperature, sedation and catalepsy are measured 20 minutes after injection.
In order to determine the antagonistic activity the identical procedure is used as for the determination of the agonistic effects, but with the difference that the substance to be evaluated for its antagonistic activity is injectected 5 minutes before the intravenous injection of 1.25 mg/kg Win-55,212 a known cannabinoid-receptor agonist.
The hot plate analgesia is determined according to the method described in Woolfe D. et al. "The evaluation of analgesic action of pethidine hydrochloride (Demerol)", J. Pharmacol. Exp. Ther. 80, 300-307,1944. […]
The mice are placed on a hot plate (Harvard Analgesimeter) at 55 ± 0.5 °C until they show a painful sensation by licking their paws or jumping and the time for these sensations to occur is recorded. This reading is considered the basal value (B). […]

Structures can show the parent of a compound that is named as a salt.

T1 sequence (P21554 whole entry): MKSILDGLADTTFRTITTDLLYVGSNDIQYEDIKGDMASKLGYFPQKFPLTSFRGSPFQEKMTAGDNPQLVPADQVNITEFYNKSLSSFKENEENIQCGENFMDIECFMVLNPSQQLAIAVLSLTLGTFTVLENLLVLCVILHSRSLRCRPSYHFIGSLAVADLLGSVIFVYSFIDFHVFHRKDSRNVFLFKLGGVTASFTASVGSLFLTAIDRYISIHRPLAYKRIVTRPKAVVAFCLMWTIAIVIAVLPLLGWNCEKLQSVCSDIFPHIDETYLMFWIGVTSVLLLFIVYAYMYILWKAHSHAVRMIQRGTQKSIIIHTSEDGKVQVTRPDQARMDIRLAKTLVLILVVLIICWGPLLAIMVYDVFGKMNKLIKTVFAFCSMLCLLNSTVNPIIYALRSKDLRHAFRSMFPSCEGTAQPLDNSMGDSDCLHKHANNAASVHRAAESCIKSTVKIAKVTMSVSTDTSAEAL

A word on the IC50: it is the concentration needed to halve the response being measured. Regarding `O=C(NN1CC2CCCC2C1)C1=NN(c2ccc(Cl)cc2Cl)C(c2ccc(Cl)cc2)C1` (stereo not shown) [Example 1, 5-(4-chlorophenyl)-1-(2,4-dichlorophenyl)-N-(hexahydrocyclopenta[c]pyrrol-2(1H)-yl)-4,5-dihydro-1H-pyrazole-3-carboxamide], the half-maximal inhibitory concentration (IC50) in assay [1] stood at 12.6 nM. In the assay on cannabinoid receptors (1.25 mg/kg), the “Antagonistic Effect in (%)” value came to 122 ± 4%.
Regarding `O=C(NN1CC2CCCC2C1)C1=NN(c2ccc(Cl)cc2Cl)[C@@H](c2ccc(Cl)cc2)C1` (stereo partly drawn) [Example 2, (R)-5-(4-chlorophenyl)-1-(2,4-dichlorophenyl)-N-(hexahydrocyclopenta[c]pyrrol-2(1H)-yl)-4,5-dihydro-1H-pyrazole-3-carboxamide], in assay [1], the IC50 came out at 15.8 nM. Moreover, the “Antagonistic Effect in (%)” value in the assay on cannabinoid receptors was 125.9%.
With `O=C(NN1CC2CCCC2C1)C1=NN(c2ccc(Cl)cc2Cl)C(c2ccc(Br)cc2)C1` (stereo not shown) [Example 4, 5-(4-bromophenyl)-1-(2,4-dichlorophenyl)-N-(hexahydrocyclopenta[c]pyrrol-2(1H)-yl)-4,5-dihydro-1H-pyrazole-3-carboxamide], the “Antagonistic Effect in (%)” value in the assay on cannabinoid receptors was 121 ± 4%.
Consider `O=C(NN1CC2CCCC2C1)C1=NN(c2ccc(Cl)cc2Cl)C(c2ccc(Cl)cc2)C1` (stereo not shown) [1 (HCl)], for which, in assay [1], the concentration for half-maximal inhibition (IC50) is 70.8 nM. In addition, in the assay on cannabinoid receptors (1.25 mg/kg), the “Antagonistic Effect in (%)” value was 117 ± 3%.
